Consider three compounds from ChEMBL document CHEMBL5550088, “Design, synthesis and evaluate of indazolylaminoquinazoline derivatives as potent Tropomyosin receptor kinase (TRK) inhibitors” (Bioorg Med Chem, 2024).

Test [1] has as its target High affinity nerve growth factor receptor (Homo sapiens, UniProt P04629). The test is described as follows: Inhibition of wild type TRKA (unknown origin) preincubated for 30 mins followed by ATP and U Light-poly GT addition and measured after 2 hrs by multilabel plate reader method.
The test system of test [2] is BaF3. The test is described as follows: Antiproliferative activity against mouse BaF3 cells harbouring ETV6-TRKA wildtype assessed as cell viability measured after 72 hrs by CCK-8 method. The conditions noted are these: BaF3, 72 h.
The subject of test [3] is BaF3. Kind of test: Antiproliferative activity against mouse BaF3 cells harbouring ETV6-TRKB wildtype assessed as cell viability measured after 72 hrs by CCK-8 method. The conditions noted are these: BaF3, 72 h. In general terms: Tetrazolium assays rely on reduction of a dye to a coloured formazan, in cell work by metabolically active cells.
Test [4] relates to BaF3. The test is described as follows: cells. The conditions noted are these: Mus musculus, BaF3, 72 h.
For test [5], the system named is BaF3. Kind of test: cells. The conditions noted are these: Mus musculus, BaF3, 72 h. This is another data set of the same source.

Broadly, the IC50 is the concentration that inhibits the measured activity by half.

Chain of High affinity nerve growth factor receptor (P04629 whole entry): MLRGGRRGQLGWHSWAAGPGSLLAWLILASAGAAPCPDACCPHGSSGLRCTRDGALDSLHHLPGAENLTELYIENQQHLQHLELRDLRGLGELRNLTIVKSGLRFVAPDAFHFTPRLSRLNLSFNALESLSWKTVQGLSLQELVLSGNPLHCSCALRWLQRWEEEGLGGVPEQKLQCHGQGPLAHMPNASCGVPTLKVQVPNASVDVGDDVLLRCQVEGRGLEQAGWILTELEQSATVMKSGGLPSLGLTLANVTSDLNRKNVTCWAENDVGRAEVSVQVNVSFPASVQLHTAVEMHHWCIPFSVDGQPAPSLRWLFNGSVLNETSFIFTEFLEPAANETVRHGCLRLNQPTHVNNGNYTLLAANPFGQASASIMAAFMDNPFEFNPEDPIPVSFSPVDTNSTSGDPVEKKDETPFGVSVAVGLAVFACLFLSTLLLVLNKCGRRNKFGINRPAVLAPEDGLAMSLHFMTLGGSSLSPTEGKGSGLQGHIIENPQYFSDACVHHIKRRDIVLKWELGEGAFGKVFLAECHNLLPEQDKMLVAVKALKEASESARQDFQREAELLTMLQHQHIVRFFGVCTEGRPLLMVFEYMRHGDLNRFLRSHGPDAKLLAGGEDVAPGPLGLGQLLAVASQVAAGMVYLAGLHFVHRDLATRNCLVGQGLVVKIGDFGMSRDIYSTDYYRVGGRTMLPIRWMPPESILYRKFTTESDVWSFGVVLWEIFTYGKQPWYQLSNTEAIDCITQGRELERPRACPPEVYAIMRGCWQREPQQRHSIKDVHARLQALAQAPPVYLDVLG

The compound `CN(C)C1CCN(c2ccc3c(Nc4n[nH]c5ccc(Cc6cc(F)cc(F)c6)cc45)ncnc3c2)C1` (stereo unspecified) had a half-maximal inhibitory concentration (IC50) in test [1] of 2.3 nM.

As for `CN(C)C1CCN(c2ccc3c(Nc4n[nH]c5ccc(Cc6cc(F)cc(F)c6)cc45)n[nH]c3c2)C1` (stereo unspecified), the IC50 in test [1] was 1.9 nM.

On to `O=C(Nc1cnn2ccc(N3CCC[C@@H]3c3cc(F)ccc3F)nc12)N1CC[C@H](O)C1` [LAROTRECTINIB], for which the IC50 in the test with BaF3 [2] turned out to be 14.6 nM; with BaF3 [3], 4.9 nM; with BaF3 [4], 755 nM; with BaF3 [5] it was 2890 nM.
